Results reported in article PMC12477080, “Polychlorinated biphenyls (PCBs) interact with drug metabolism in vivo” (Archives of Toxicology, 2025).

Experiments:
[1] = system: CYP2C9; assay: CYP phenotyping cocktail clinical study: torsemide/OH-torsemide metabolic ratio and its association with PCB plasma levels; settings: linear regression of MR AUC0–8 h OH-torsemide/torsemide (CYP2C9 activity) on PCB plasma concentration
Description: (§1) The participants were ascertained not to have any acute disease by medical history, physical examination, laboratory screening, including hematological and biochemical blood tests, and a 12-lead electrocardiogram. […] The demographic data of the subjects are summarized in Table 1 in the supplemental data. At the enrollment visit, 2 blood samples (9 ml each) were collected into ethylenediaminetetraacetic acid (EDTA)-containing tubes taken from each subject for analyzing the plasma concentrations of PCB congeners and for pharmacogenetic analysis.
(§2) Participants stayed fasted from the evening before until 3 h after drug administration. After that, a meal was provided. Water and juice were permitted but alcoholic and caffeinated beverages were not allowed from the evening before drug administration until the last blood sample was taken on the next day. Venous blood samples (9 ml each) were collected through an intravenous catheter immediately before and 0.25, 0.5, 0.75, 1, 1.5, 2, 2.5, 3, 4, 5, 6, 7, 8, and 24 h after drug administration. Blood was drawn into EDTA-coated tubes, centrifuged at 1500 g for 10 min at 4 °C, and plasma samples were subsequently stored at − 80 °C until further analysis. After completely voiding the bladder immediately before drug administration, the participants collected urine from 0 to 24 h after drug administration. After weighing the collected urine, a 10 ml aliquot of each fraction was taken.
(§3) Commercially sourced standards and internal standards were used for quantification (see Supplemental Materials). In brief, 20 µl of the plasma samples were protein-precipitated with 80 µl methanol containing all internal standards or were treated for 16 h at 37 °C with 2 µl β-glucuronidase (1,000,000 Units) for deconjugation before protein precipitation with 78 µl methanol containing internal standards. Samples were centrifuged for 20 min, at 4 °C and 17,000 × g, and 40 µl of the supernatants were diluted with 40 µl LC–MS grade water, centrifuged again for 5 min at 4 °C and 17,000 × g and 50 µl supernatant were transferred to LC–MS vials 5 µl of the samples were injected into the LC–MS system.
(§4) An Agilent 1290 Infinity II UHPLC coupled with a SCIEX QTRAP6500 + triple quadrupole mass spectrometer was used. Chromatographic separation was achieved on an Agilent Poroshell 120 EC-C18 (1.9 µm, 2.1 × 50 mm) column with A: 0.1% formic acid in water and B: methanol with a flow rate of 0.7 ml/min and a total run time of 8.5 min. Analytes were eluted using a gradient program. The following gradient steps represent gradual changes in % B over time: 5% B from 0 to 0.2 min, 30% B at 2 min, 34% B at 4.8 min, 95% B at 6.5 min, 95% B at 7.5 min and re-equilibrating to 5% B at 7.7 min and 5%B till 8.5 min. A representative chromatogram is shown in supplemental Fig. 2. The scheduled MRM mode was applied for analyte detection in both positive and negative ESI modes (Supplementary Table 4). Calibration curves were constructed with linear regression using weighted (1/x^2) models (detailed information in supplemental methods).
(§5) Partial areas under the plasma concentration–time curves from 0 to 3 h (AUC0–3 h), from 0 to 4 h (AUC0–4 h), and from 0 to 8 h (AUC0–8 h) were calculated based on measured concentrations by the linear trapezoidal rule without extrapolation. […] Metabolic ratios (MR) were calculated by dividing the partial AUC of the metabolite by the respective partial AUC of the parent drug. The MRs were used as biomarkers for the individual CYP activities of the study subjects.

[2] = Determination of PCB concentrations in plasma of HELPcB and control participants; assay type: in vivo; settings: human plasma
[3] = system: CYP2D6; assay: CYP phenotyping cocktail clinical study: metoprolol/α-OH-metoprolol metabolic ratio and its association with PCB plasma levels; settings: linear regression of MR AUC0–8 h α-OH-metoprolol/metoprolol (CYP2D6 activity) on PCB plasma concentration
Description: as §1, §2, §3, §4, §5

[4] = system: CYP1A2; assay: CYP phenotyping cocktail clinical study: caffeine/paraxanthine metabolic ratio and its association with PCB plasma levels
Description: as §1, §2, §3
An Agilent 1290 Infinity II UHPLC coupled with a SCIEX QTRAP6500 + triple quadrupole mass spectrometer was used. […]
as §5, with “The MRs were used as biomarkers for the individual CYP activities of the study subjects.” left out

For `Clc1ccc(-c2cc(Cl)c(Cl)cc2Cl)cc1Cl` [PCB118], the t value [1] was 1,339, the “β (standardized regression coefficient)” value [1] was 0,301 and the t value ([1]; PM excl) was 1,228. For the same compound, the “β (standardized regression coefficient)” value ([1]; PM excl) was 0,286, the “PCB plasma concentration, Mean [±SD] HELPcB” value ([2]; HELPcB (occupationally exposed) group) was 0.122 ± 0.122 ng/mL and the “PCB plasma concentration, Geometric mean, HELPcB” value ([2]; HELPcB group, N 10) was 0.075 ng/mL. For the same compound, the “PCB plasma concentration, Mean [±SD] all” value ([2]; all participants) was 0.072 ± 0.099 ng/mL, the “PCB plasma concentration, Mean [±SD] control” value ([2]; control group (background exposure)) was 0.022 ± 0.012 ng/mL and the “PCB plasma concentration, Geometric mean, Control” value ([2]; control group, N 10) was 0.019 ng/mL. The t value [3] was 2,169, the “β (standardized regression coefficient)” value [3] was 0,455 and the “association with CYP1A2 activity in hierarchical generalized mixed model” value ([4]; adjusted for co-factors (smoking status, gender, BMI, age)) was “became significant when smoking status was included as a co-factor”. The “proportion of variability in CYP1A2 activity explained” value ([4]; linear regression, MR paraxanthine/caffeine on PCB118 plasma concentration) was ~ 15.5%.
